The text below walks through data of ChEMBL document CHEMBL1201862, “PubChem BioAssay data set” (2004).

Holding throughout (assay): DTP human tumour cell line panel, 48 h
For test [1], the system named is HCT-15.
Test [2] concerns CAKI-1.
In test [3] the test system is SK-MEL-5.
In test [4] the test system is SK-MEL-2.
The subject of test [5] is SNB-19.
In test [6] the test system is NCI-H226.
In test [7] the test system is K562.
For test [8], the system named is SF-295.
Test [9] deals with COLO 205.
Test [10] concerns SK-OV-3.
The test system of test [11] is MOLT-4.
Test [12] concerns CCRF-CEM.
In test [13] the test system is OVCAR-4.
In test [14] the test system is UO-31.
Test [15] relates to UACC-62.
Test [16] concerns HT-29.
For test [17], the system named is A498.

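All cell lines were grown in 96-well plates and treated with compound for 48 hours. GI50: concentration for 50% inhibition of growth.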 Calls of active or inactive are those of the source. No stated cut-off is given here; in the data, active = GI50 up to about 1.1 µM and inactive = higher.

As for `CC(C)CCC[C@@H](C)C1CCC2[C@@H]3CC=C4C[C@@H](OC(=O)CCC(=O)NCC[N+](C)(C)CCCS(=O)(=O)[O-])CC[C@]4(C)C3CC[C@@]21C` (some centres not stated), the GI50 is 15.4 µM in test [1]; 40.7 µM (inactive) in test [2]; > 10 µM (inactive) in test [3]; 18.8 µM (inactive) in test [4]; 24.3 µM (inactive) in test [5]; 27.4 µM (inactive) in [6]. Also, the GI50 in [7] is 18.9 µM (inactive); in [8], 17 µM (inactive); in test [9] it was 19.6 µM (inactive); in test [10] it was > 100 µM (inactive); in [11], 19.1 µM (inactive); in test [12], 23.5 µM (inactive). The GI50 in test [13] is 17.9 µM (inactive); in test [14], 41 µM (inactive); in test [15] it was 26.3 µM (inactive); in [16], 26.7 µM (inactive).
As for `Cc1c(C(=O)CSc2nc3ccccc3c(=O)n2-c2ccccc2)c(=O)n(-c2ccccc2)n1C`, the GI50 in [1] is over 100 µM; in [2], 0.185 µM (active); in [3] it was 31.6 µM (inactive); in test [4], > 100 µM (inactive); in test [5] it was 44.4 µM (inactive); in test [6], 23.3 µM (inactive). Moreover, the GI50 is 28.8 µM (inactive) in test [8]; > 100 µM (inactive) in [9]; 19.3 µM (inactive) in test [10]; > 100 µM (inactive) in test [11]; > 100 µM (inactive) in test [12]; > 100 µM (inactive) in [13]. The values for the GI50 in test [14], in test [17] and in [16] were 34.8 µM (inactive), 42.4 µM (inactive) and > 100 µM (inactive), respectively.
For `NNC(=O)CNC(=O)c1ccc(Cl)cc1Cl`, the GI50 is 32.7 µM in test [1]; > 100 µM (inactive) in [2]; > 100 µM (inactive) in test [3]; > 100 µM (inactive) in test [5]; > 100 µM (inactive) in test [6]; > 100 µM (inactive) in test [7]. The GI50 in test [8], in test [9], in [10], in [11], in [12] and in test [13] was > 100 µM (inactive) each time. In addition, the GI50 was > 100 µM (inactive) in test [14], > 100 µM (inactive) in test [15], > 100 µM (inactive) in test [17] and 80.4 µM (inactive) in test [16].
For the compound `CC(=O)OC1CC2Oc3ccc(C)cc3C(C)(O2)C1=O` (configuration not stated), the GI50 in [1] was over 100 µM; in test [3], > 100 µM (inactive); in [5], > 100 µM (inactive); in [6] it was > 100 µM (inactive); in test [7], > 100 µM (inactive); in test [8], > 100 µM (inactive). The GI50 in test [9], in test [10], in [11], in test [12], in test [14] and in test [15] was > 100 µM (inactive) in each case. Besides, in test [16], the GI50 was > 100 µM (inactive).
As to `CC(=O)OCCOCNC(=S)N/N=C(\C)c1cnccn1`, the GI50 in test [1] was 22.1 µM; in test [3] it was 15.4 µM (inactive); in test [4], > 100 µM (inactive); in [5], 73.1 µM (inactive); in [6] it was 28.1 µM (inactive); in [7], 30.5 µM (inactive). Besides, the GI50 is 36.3 µM (inactive) in [8]; 28.1 µM (inactive) in test [9]; 46.5 µM (inactive) in [10]; 14.1 µM (inactive) in [11]; 13 µM (inactive) in test [12]; > 100 µM (inactive) in test [13]. Moreover, the GI50 in [14] was 18.9 µM (inactive); in test [15] it was 13.5 µM (inactive); in test [17], 58.6 µM (inactive); in test [16], 41 µM (inactive).
For the compound `CCC1=C(C)/C(=C/c2[nH]c(C(Br)Br)c(CC)c2C)N=C1C(Br)Br`, the GI50 in [1] was 28.2 µM; in test [3], 16.6 µM (inactive); in test [4], 38 µM (inactive); in test [5], 33.3 µM (inactive); in test [6], 20.1 µM (inactive); in test [7], 24.2 µM (inactive). For the same compound, the GI50 is 26.1 µM (inactive) in test [8]; 5.87 µM (inactive) in [9]; 25.4 µM (inactive) in [10]; 5.93 µM (inactive) in test [11]; 13.6 µM (inactive) in test [12]; 20.7 µM (inactive) in test [14]. Besides, the figures for the GI50 in test [15] and in test [16] were 31 µM (inactive) and 28.5 µM (inactive), respectively.
For the compound `Cc1nsc2cc(Cl)n(C)c(=O)c12`, the GI50 in [1] is over 100 µM; in [2], 40.4 µM (inactive); in [3], > 100 µM (inactive); in test [4] it was > 100 µM (inactive); in [5] it was > 100 µM (inactive); in test [6], > 100 µM (inactive). In addition, the GI50 in test [7], in test [9], in [10], in [11], in test [12] and in test [13] was > 100 µM (inactive) throughout. The GI50 in test [14], in test [17] and in test [16] was > 100 µM (inactive) in each case.
`NC(=O)C(N)=O`: the GI50 in test [1] was over 100 µM; in test [3], > 100 µM (inactive); in [4], > 100 µM (inactive); in [5], > 100 µM (inactive); in test [7] it was > 100 µM (inactive); in test [8], > 100 µM (inactive). The GI50 in test [9], in test [10], in test [11], in test [12], in test [14] and in test [15] was > 100 µM (inactive) each time. For the same compound, the GI50 in test [17] was > 100 µM (inactive).
Regarding `COC1=CC(=O)C2C(C1=O)[C@@H]1c3ccccc3C[C@H]21` (some centres not stated), the GI50 was over 100 µM in test [1]; > 100 µM (inactive) in test [2]; > 100 µM (inactive) in [3]; > 100 µM (inactive) in test [4]; > 100 µM (inactive) in test [5]; > 100 µM (inactive) in test [7]. The GI50 in [8], in test [9], in [10], in test [11], in test [12] and in [13] was > 100 µM (inactive) each time. Besides, the GI50 in test [14], in test [15], in test [17] and in test [16] was > 100 µM (inactive) each time.
On to `CCc1nnc(S)n1/N=C/c1ccc(-c2ccc([N+](=O)[O-])cc2)o1`, for which the GI50 in [1] was over 100 µM; in test [2], > 100 µM (inactive); in test [4], > 100 µM (inactive); in test [5] it was > 100 µM (inactive); in test [6] it was > 100 µM (inactive); in [7], > 100 µM (inactive). Moreover, the GI50 in [8], in test [9], in test [10], in test [11], in [13] and in test [14] was > 100 µM (inactive) throughout. The GI50 in test [15] and in [16] was > 100 µM (inactive) in each case.
On to `O=C(OC1CC(n2cc(F)c(=O)[nH]c2=O)OC1CSC(=O)c1ccccc1)c1ccccc1` (configuration not stated), for which the GI50 is 34.2 µM in test [1]; 48.5 µM (inactive) in test [4]; 59.7 µM (inactive) in test [5]; 31.3 µM (inactive) in test [6]; 54.3 µM (inactive) in test [7]; 33.7 µM (inactive) in test [8]. Further, the GI50 in test [9] was 29.6 µM (inactive); in test [10], > 100 µM (inactive); in [11] it was 25.7 µM (inactive); in test [12] it was 37.2 µM (inactive); in [13], 16.6 µM (inactive); in test [14], 38.8 µM (inactive). The GI50 in test [15] was 36.4 µM (inactive); in test [17], 41.6 µM (inactive); in [16], 17.8 µM (inactive).
As to `c1ccc2c(C3NCCc4nc[nH]c43)cccc2c1` (configuration not stated), the GI50 in [1] was over 100 µM; in test [2], > 100 µM (inactive); in [3], > 100 µM (inactive); in test [4], > 100 µM (inactive); in test [6], > 100 µM (inactive); in test [7], > 100 µM (inactive). Also, the GI50 in [8], in test [9], in [10], in [11], in [12] and in test [13] was > 100 µM (inactive) in each case. For the same compound, the GI50 in test [14], in test [15], in test [17] and in [16] was > 100 µM (inactive) throughout.
Consider `CCOC(=O)C1S/C(=N\c2cccc(Cl)c2C)N=C1C` (configuration not stated), for which the GI50 in [1] was over 10 µM; in test [4], 19.5 µM (inactive); in test [5] it was 31.4 µM (inactive); in test [6], 32.8 µM (inactive); in [7], 34.1 µM (inactive); in test [8], 18.8 µM (inactive). Besides, the GI50 is 21.4 µM (inactive) in test [9]; 29.7 µM (inactive) in [11]; 31 µM (inactive) in [13]; 37.4 µM (inactive) in test [14]; 34.2 µM (inactive) in test [17]; 17 µM (inactive) in test [16].
Turning to `C[N+](C)(C)CCC(=O)CC[N+](C)(C)C`, the GI50 in test [1] is 19.2 µM; in test [2], 15.7 µM (inactive); in [3], 35.3 µM (inactive); in test [4], 21.5 µM (inactive); in [5], > 100 µM (inactive); in test [7] it was 6.68 µM (inactive). The GI50 is 18.7 µM (inactive) in test [8]; 16.4 µM (inactive) in test [9]; > 100 µM (inactive) in test [10]; 4.14 µM (inactive) in test [11]; 2.49 µM (inactive) in [12]; 17.7 µM (inactive) in test [13]. The GI50 is 92 µM (inactive) in [14], 21.5 µM (inactive) in [15], 70.5 µM (inactive) in test [17] and 13.5 µM (inactive) in test [16].
